Data: patent US6875451B2, “Compositions and methods for the treatment of primary and metastatic neoplastic diseases using arsenic compounds” (PolaRx Biopharmaceuticals Inc., priority 1997, dated 2005)

Legend:
Type in all cases: cell-based
NCI-H23 = test: SRB growth assay, 2 days exposure, non-small cell lung cancer
Method: (§1) Arsenic trioxide (1 mg/ml, 10 mg/ampoule, manufactured by Taylor Pharmaceuticals, Decatur, Ill.) was tested at five concentrations each at 10-fold dilutions, i.e., 10^−5, 10^−6, 10^−7, 10^−8 and 10^−9 μg/ml.
(§2) The in vitro tests were performed by incubating the test cells in the presence of the indicated concentration of arsenic trioxide under standard culture conditions for a designated period of time, which is followed by a sulforhodamine B (SRB) protein assay to estimate cell viability or growth. The cell lines are organized into subpanels according to the origin of the cell lines, e.g., leukemia, breast cancer, etc. A description of the cell lines and method of testing is described in Monk et al. (1997, Anticancer Drug Des. 12:533-41) and Weinstein et al., (1997, Science 275:343-9), which are incorporated herein in their entirety.
(§3) The measurement of an effect is expressed in Percentage Growth (PG). The measured effect of the compound on a cell line is calculated according to one or the other of the following two expressions: If (Mean ODtest−Mean ODzero)≧0. then PG=100×(Mean ODtest−Mean ODzero)/(Mean ODctrl−Mean ODzero) If (Mean ODtest−Mean ODzero)<0. then PG=100×(Mean ODtest−Mean ODzero)/(Mean ODzero where: • Mean ODzero=the average of optical density measurements of SRB-derived color just before exposure of cells to the test compounds; • Mean ODtest=the average of optical density measurements of SRB-derived color after exposure of cells to the test compound for a designated period of time; and • Mean ODctrl=the average of optical density measurements of SRB-derived color after with no exposure of cells to the test compound for a designated period of time
(§4) The first two columns describe the subpanel (e.g., leukemia) and cell line (e.g., CCRF-CEM) involved. The next two columns list the Mean ODzero and Mean ODctrl; the next five columns list the Mean ODtest for each of five different concentrations. Each concentration is expressed as the log10 (molar or μg/ml). The next five columns list the calculated PGs for each concentration. The response parameters GI50, TGI and LC50 are interpolated values representing the concentrations at which the PG is +50, 0, and −50, respectively. Sometimes these response parameters cannot be obtained by interpolation. If, for instance, all of the PGs in a given row exceed +50, then none of the three parameters can be obtained by interpolation. In such a case, the value given for each response parameter is the highest concentration tested and is preceded by a “>” sign. This practice is extended similarly to the other possible situations where a response parameter cannot be obtained by interpolation.
(§5) In the first set, the cells from 56 different cancer cell lines were exposed to five concentrations of arsenic trioxide continuously for two days prior to performing the SRB assay. In the second set, the cells from 50 different cell lines (a subset of the first 56 cell lines, plus the renal cancer cell line 786-0) were exposed continuously for six days prior to the SRB assay.

NCI-H522 = test: as above
Method: as §1, §2, §3, §4, §5

HOP-62 = test: as above
Method: as §1, §2, §3, §4, §5

NCI-H226 = test: as above
Method: as §1, §2, §3, §4, §5

A549/ATCC = test: as above
Method: as §1, §2, §3, §4, §5

NCI-H460 = test: as above
Method: as §1, §2, §3, §4, §5

EKVX = test: as above
Method: as §1, §2, §3, §4, §5

UACC-62 = test: SRB growth assay, 6 days exposure, melanoma; conditions: UACC-62, 6 days
Method: as §1, §2, §3, §4, §5

UACC-257 = test: SRB growth assay, 6 days exposure, melanoma; conditions: UACC-257, 6 days
Method: as §1, §2, §3, §4, §5

SK-MEL-28 = test: SRB growth assay, 6 days exposure, melanoma; conditions: SK-MEL-28, 6 days
Method: as §1, §2, §3, §4, §5

SK-MEL-2 = test: SRB growth assay, 6 days exposure, melanoma; conditions: SK-MEL-2, 6 days
Method: as §1, §2, §3, §4, §5

arsenic trioxide
TGI (NCI-H23): >0.0126 ng/mL
Percent Growth (NCI-H23; log10 conc −4.9): 58%
Percent Growth (NCI-H23; log10 conc −5.9): 101%
Percent Growth (NCI-H23; log10 conc −6.9): 127%
Percent Growth (NCI-H23; log10 conc −7.9): 121%
Percent Growth (NCI-H23; log10 conc −8.9): 115%
TGI (NCI-H522): 0.00708 ng/mL
Percent Growth (NCI-H522; log10 conc −4.9): −21%
Percent Growth (NCI-H522; log10 conc −5.9): 63%
Percent Growth (NCI-H522; log10 conc −6.9): 108%
Percent Growth (NCI-H522; log10 conc −7.9): 100%
Percent Growth (NCI-H522; log10 conc −8.9): 129%
TGI (HOP-62): >0.0126 ng/mL
Percent Growth (HOP-62; log10 conc −4.9): 35%
Percent Growth (HOP-62; log10 conc −5.9): 97%
Percent Growth (HOP-62; log10 conc −6.9): 100%
Percent Growth (HOP-62; log10 conc −7.9): 99%
Percent Growth (HOP-62; log10 conc −8.9): 97%
TGI (NCI-H226): >0.0126 ng/mL
Percent Growth (NCI-H226; log10 conc −4.9): 92%
Percent Growth (NCI-H226; log10 conc −5.9): 109%
Percent Growth (NCI-H226; log10 conc −6.9): 109%
Percent Growth (NCI-H226; log10 conc −7.9): 96%
Percent Growth (NCI-H226; log10 conc −8.9): 109%
TGI (A549/ATCC): >0.0126 ng/mL
Percent Growth (A549/ATCC; log10 conc −4.9): 69%
Percent Growth (A549/ATCC; log10 conc −5.9): 108%
Percent Growth (A549/ATCC; log10 conc −6.9): 100%
Percent Growth (A549/ATCC; log10 conc −7.9): 102%
Percent Growth (A549/ATCC; log10 conc −8.9): 100%
TGI (NCI-H460): >0.0126 ng/mL
Percent Growth (NCI-H460; log10 conc −4.9): 49%
Percent Growth (NCI-H460; log10 conc −5.9): 92%
Percent Growth (NCI-H460; log10 conc −6.9): 100%
Percent Growth (NCI-H460; log10 conc −7.9): 95%
Percent Growth (NCI-H460; log10 conc −8.9): 89%
TGI (EKVX): >0.0126 ng/mL
Percent Growth (EKVX; log10 conc −4.9): 11%
Percent Growth (EKVX; log10 conc −5.9): 130%
Percent Growth (EKVX; log10 conc −6.9): 127%
Percent Growth (EKVX; log10 conc −7.9): 129%
Percent Growth (EKVX; log10 conc −8.9): 119%
TGI (UACC-62): 2.27E−06
Mean Optical Densities (UACC-62; Log 10 Concentration −4.9): 0.001
Percent Growth (UACC-62; Log 10 Concentration −4.9): −98%
Mean Optical Densities (UACC-62; Log 10 Concentration −5.9): 0.539
Percent Growth (UACC-62; Log 10 Concentration −5.9): 34%
Mean Optical Densities (UACC-62; Log 10 Concentration −6.9): 1.409
Percent Growth (UACC-62; Log 10 Concentration −6.9): 92%
Mean Optical Densities (UACC-62; Log 10 Concentration −7.9): 1.460
Percent Growth (UACC-62; Log 10 Concentration −7.9): 95%
Mean Optical Densities (UACC-62; Log 10 Concentration −8.9): 1.546
Percent Growth (UACC-62; Log 10 Concentration −8.9): 101%
TGI (UACC-257): 5.83E−06
Mean Optical Densities (UACC-257; Log 10 Concentration −4.9): 0.039
Percent Growth (UACC-257; Log 10 Concentration −4.9): −27%
Mean Optical Densities (UACC-257; Log 10 Concentration −5.9): 0.504
Percent Growth (UACC-257; Log 10 Concentration −5.9): 54%
Mean Optical Densities (UACC-257; Log 10 Concentration −6.9): 0.832
Percent Growth (UACC-257; Log 10 Concentration −6.9): 94%
Mean Optical Densities (UACC-257; Log 10 Concentration −7.9): 0.857
Percent Growth (UACC-257; Log 10 Concentration −7.9): 97%
Mean Optical Densities (UACC-257; Log 10 Concentration −8.9): 0.872
Percent Growth (UACC-257; Log 10 Concentration −8.9): 99%
CC50 (UACC-257; read-out: LC50 (the source's name)): > 12.6 µM
TGI (SK-MEL-28): 1.86E−06
Percent Growth (SK-MEL-28; Log 10 Concentration −4.9): −100%
Mean Optical Densities (SK-MEL-28; Log 10 Concentration −5.9): 0.488
Percent Growth (SK-MEL-28; Log 10 Concentration −5.9): 20%
Mean Optical Densities (SK-MEL-28; Log 10 Concentration −6.9): 1.797
Percent Growth (SK-MEL-28; Log 10 Concentration −6.9): 88%
Mean Optical Densities (SK-MEL-28; Log 10 Concentration −7.9): 1.906
Percent Growth (SK-MEL-28; Log 10 Concentration −7.9): 94%
Mean Optical Densities (SK-MEL-28; Log 10 Concentration −8.9): 2.012
Percent Growth (SK-MEL-28; Log 10 Concentration −8.9): 99%
TGI (SK-MEL-2): 5.63E−07
Percent Growth (SK-MEL-2; Log 10 Concentration −4.9): −100%
Mean Optical Densities (SK-MEL-2; Log 10 Concentration −5.9): 0.128
Percent Growth (SK-MEL-2; Log 10 Concentration −5.9): −40%
Mean Optical Densities (SK-MEL-2; Log 10 Concentration −6.9): 0.426
Percent Growth (SK-MEL-2; Log 10 Concentration −6.9): 74%
Mean Optical Densities (SK-MEL-2; Log 10 Concentration −7.9): 0.462
Percent Growth (SK-MEL-2; Log 10 Concentration −7.9): 87%
Mean Optical Densities (SK-MEL-2; Log 10 Concentration −8.9): 0.491
Percent Growth (SK-MEL-2; Log 10 Concentration −8.9): 97%
